Experimental data reported in patent publication US5482975A, “Adenosine diphosphoribose polymerase binding nitroso aromatic compounds useful as retroviral inactivating agents, anti-retroviral agents and anti-tumor agents” (priority 1993, dated 1996).

What was measured:
[1] = test system: ADPRT; settings: cited from earlier work
[2] = target: Zn(HIV1-F1) (Human immunodeficiency virus type 1 lw12.3 isolate, UniProt Q70622); settings: cited from earlier work
[3] = test system: HIV-1; experiment: inhibition of HIV infection, virus titer in stimulated human lymphoblasts; format: cell-based; settings: 30 min exposure, day 10, virus alone 5.25
Method: VIII. Anti-HIV action of NOBP, NOBA and NOQ on stimulated human lymphoblasts.
Exposure to the two drugs was only for 30 minutes at the commencement of viral infection, and drugs were never re-added. The results given in Table III provide the ID50 of HIV titer 10 days after infection of cell cultures with HIV.

[4] = test system: various cancer cells (855-2, HL-60, D32, D37, CRL 7712, 186 medulla, L1210, MDA-468); experiment: functions of various cancer cells in presence of compounds (FIGS. 4-9); format: cell-based; settings: summary statement
Method: (§1) Experiments were performed in which the functions of various cancer cells (855-2 and HL-60 leukemia cells, D32, D37 and CRL 7712 glioblastoma cell lines, 186 medulla tumor cell line, L1210 murine leukemia cell line, MDA-468 human breast tumor cell line) and normal cells (neutrophil leukocytes and bone marrow or peripheral blood stream cells) were assessed in the absence or presence of the compounds.

[5] = test system: 855-2 cells; experiment: cytocidal activity, MTT assay; format: cell-based, human; settings: 10 μM; 100,000 cells/ml
Method: MTT (3-[4,5-[…]]-2,5-diphenyltetrazolium bromide) at 1 mg/ml was then added for 16 hours. The absorbance of the pelleted cell was then measured at 550 nm after adding DMSO to solubilze the cells.

[6] = test system: K562 cells; experiment: [3H] thymidine uptake, K562 cells (FIG. 2D); format: cell-based, human; settings: 10% fetal bovine serum
[7] = test system: H9 cells; experiment: [3H] thymidine uptake, H9 cells (FIG. 2B); format: cell-based, human; settings: 10% FCS
[8] = test system: human leukemia cell lines (855-2, H9, HL-60, K562); experiment: [3H] thymidine uptake, human leukemia cell lines together; format: cell-based; settings: 10 μM; each of the cell lines tested
[9] = test system: 855-2 cells; experiment: colony formation (CFU) of leukemic cells in semi-solid medium (FIG. 4); format: cell-based, human
Method: as §1

[10] = test system: normal cells (neutrophil leukocytes and bone marrow or peripheral blood cells)
Method: as §1

[11] = test system: 855-2 cells; experiment: [3H] thymidine uptake / growth, 855-2 cells (FIG. 2A, E, F; FIG. 3); format: cell-based, human; settings: for relative inhibition: 1 μM; for relative inhibition / inhibition / inhibitory effects with different growth factors: 10% fetal bovine serum; for inhibitory effects with different growth factors: AGF or BCGF
Method: FIGS. 2A-2F are a composite of graphs displaying the inhibitory effects of the ADRPT ligands on (FIG. 2A) 855-2 cells (a cell line of human B-cell lineage acute lymphoblastic leukemia), (FIG. 2B) H9 cells (a cell line of human T-cell lineage acute lymphoblastic leukemia), FIG. (2C) HL-60 cells (a cell line of human acute nonlymphoblastic leukemia) and (FIG. 2D) K562 cells (a cell line of human chronic myelogenous leukemia). These cells were cultured while under the influence of the growth factors in 10% fetal bovine serum (FCS), whereas in (FIG. 2E) and (FIG. 2F) the 855-2 cells were cultured in the presence of autocrine growth factor activity (AGF) or low molecular weight-B-cell growth factor (BCGF, a T-cell derived lymphokine), respectively.
Experiments using HL-60 cells (FIG. 2C) provided similar conclusions.
855-2 cells that were grown in media with (1) 10% fetal bovine serum, (2) autocrine growth factor (AGF) and (3) low molecular weight-BCGF (a T cell derived lymphokine) were exposed to increasing concentrations of the ADRPT ligands.

[12] = test system: anti-tumor and anti-HIV; experiment: biological action of nitroso compounds (anti-tumor and anti-HIV, summary); format: cell-based; settings: for anti-tumor and anti-HIV activity: effective even after exposure of cells as short as 30 minutes
[13] = test system: 855-2 leukemia cells; experiment: growth inhibition of 855-2 cells, comparison with vincristine (FIG. 7); format: cell-based, human
Method: Vincristine, a highly toxic chemotherapeutic compound, is currently used in the treatment of leukemia and other malignancies. […] Vincristine was tested in doses of 0.1, 1, 10 and 100 μM.

[14] = test system: HL-60 cells; experiment: colony formation (CFU) of leukemic cells in semi-solid medium (FIG. 4); format: cell-based, human
Method: as §1

[15] = test system: Human Neutrophils; experiment: superoxide generation by human neutrophils; settings: 10 μM; mean + S.D., n = 11; PMN + PMA
[16] = test system: normal rhesus bone marrow stem cells; experiment: CFU stem cell toxicity assay (FIG. 5A)
[17] = target: T1, calf thymus ADPRT (Bos taurus, UniProt P18493); experiment: ADPRT polymerase activity inhibition / inactivation; format: biochemical
T1 construct: from tissue; host or cells: calf thymus
T1 sequence (P18493 whole entry): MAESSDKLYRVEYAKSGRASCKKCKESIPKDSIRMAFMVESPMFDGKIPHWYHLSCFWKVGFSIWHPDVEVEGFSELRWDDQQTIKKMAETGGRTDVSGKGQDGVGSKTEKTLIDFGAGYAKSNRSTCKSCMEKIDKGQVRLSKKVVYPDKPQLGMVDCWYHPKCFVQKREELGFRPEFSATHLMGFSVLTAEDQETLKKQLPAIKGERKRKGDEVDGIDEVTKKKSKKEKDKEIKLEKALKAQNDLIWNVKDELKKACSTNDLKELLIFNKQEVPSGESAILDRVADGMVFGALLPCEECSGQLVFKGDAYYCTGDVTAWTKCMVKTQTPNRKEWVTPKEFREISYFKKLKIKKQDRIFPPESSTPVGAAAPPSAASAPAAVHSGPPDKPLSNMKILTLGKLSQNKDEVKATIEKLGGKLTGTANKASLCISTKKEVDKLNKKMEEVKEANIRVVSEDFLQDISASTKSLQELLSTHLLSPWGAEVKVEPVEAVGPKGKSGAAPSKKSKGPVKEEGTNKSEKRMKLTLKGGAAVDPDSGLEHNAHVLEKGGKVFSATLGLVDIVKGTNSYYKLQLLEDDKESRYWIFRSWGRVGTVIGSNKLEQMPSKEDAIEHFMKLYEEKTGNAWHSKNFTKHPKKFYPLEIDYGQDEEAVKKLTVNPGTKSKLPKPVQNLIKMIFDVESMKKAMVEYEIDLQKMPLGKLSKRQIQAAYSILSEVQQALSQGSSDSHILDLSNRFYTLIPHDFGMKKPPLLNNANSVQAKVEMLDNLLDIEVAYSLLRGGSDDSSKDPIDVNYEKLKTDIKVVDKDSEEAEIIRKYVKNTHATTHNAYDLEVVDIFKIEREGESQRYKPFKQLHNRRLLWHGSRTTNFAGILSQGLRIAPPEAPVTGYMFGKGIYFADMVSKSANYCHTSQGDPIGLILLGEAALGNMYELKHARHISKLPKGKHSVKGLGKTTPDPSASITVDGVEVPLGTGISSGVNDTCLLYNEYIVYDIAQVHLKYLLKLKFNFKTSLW
Method: | Polymerization at 25° C. for 4 minutes.

[18] = not told

In the case of `O=c1ccc2ccccc2o1` [coumarin, 1,2-benzopyrone], the “ADPRT binding” value [1] is listed as “inhibitory ligand” and the “ADPRT polymerase activity inhibition” value [1] is listed as “known to inhibit ADPRT polymerase activity”.

For `O=C(O)CN(CCN(CC(=O)O)CC(=O)O)CC(=O)O` [EDTA], the “molar excess required to remove zinc from Zn(HIV1-F1)” value [2] is listed as 10 fold.

In the case of `NC(=O)c1ccccc1` [benzamide], the “ADPRT polymerase activity inhibition” value [1] is listed as “known to inhibit ADPRT polymerase activity”.

For `O=c1ccc2cc([N+](=O)[O-])ccc2o1` [NO2 BP, 6-nitro-1,2-benzopyrone, reference compound], the “Virus Titer (log ID50)” value ([3]; 250 μM) was 4.93 log ID50 and the “effectiveness against tumor cells” value [4] was “almost ineffective”.

With `O=Nc1ccc2oc(=O)ccc2c1` [NOBP, 6-nitroso-1,2-benzopyrone] the “cell killing” value [5] was “complete killing”, the “inhibition of cell growth” value ([6]; 10 μM) was “almost complete inhibition” and the “inhibition of cell growth” value ([6]; 100 μM) was “almost complete inhibition”. The “relative potency” value [6] was “most potent inhibitors”, the “inhibition of thymidine uptake” value ([7]; 100 μM) was “almost complete inhibition” and the “inhibition of 3H-thymidine uptake” value [8] was “powerfully inhibited”. The “ability to form colonies (CFU)” value [9] was “inhibit the ability”, the “effect on colony formation by normal cells” value [10] was “minimal effect on normal cells” and the “effect on viability of normal cells” value [10] was “not to affect adversely the viability of normal cells”. For the same compound, the “toxicity to normal cells” value [10] was “not toxic to normal cells”, the “relative inhibition” value [11] was “somewhat more inhibition than NOBA” and the “growth arrest in increasing FCS” value ([11]; 10 μM, increasing FCS concentrations) was “Growth arrest occurs irrespective of the concentration of FCS”. The “inhibition” value ([11]; 10 μM) was “almost complete inhibition”, the “inhibitory effects with different growth factors” value [11] was “potent inhibitory effects” and the “Virus Titer (log ID50)” value ([3]; 10 μM) was 2.01 log ID50. For the same compound, the “anti-tumor and anti-HIV activity” value [12] was “highly active”, the “effectiveness against tumor cells” value [4] was “highly effective” and the “times more potent than vincristine” value ([13]; equal concentration) was “about 10 times”. The “ability to form colonies (CFU)” value [14] was “inhibit the ability” and the “Generation of Superoxide by Human Neutrophils” value [15] was 34.1 ± 14.1 nmol 02^- /hr/10^5 cells.

In the case of `Nc1ccc2oc(=O)ccc2c1I` [IABP, 5-iodo-6-amino-1,2-benzopyrone], the “ADPRT polymerase activity inhibition” value [1] is listed as “known ADPRT polymerase activity inhibitors”, the “CFU stem cell toxicity” value ([16]; 250 μM) is listed as “toxic” and the “Virus Titer (log ID50)” value ([3]; 250 μM) is listed as 4.66 log ID50.

For `Nc1ccc2oc(=O)ccc2c1` [ABP, 6-amino-1,2-benzopyrone], the “ADPRT binding” value [1] is listed as “binds specifically to ADRPT at the site that also binds to DNA”, the “CFU stem cell toxicity” value ([16]; 1 μM) is listed as “toxic” and the “Virus Titer (log ID50)” value ([3]; 500 μM) is listed as 4.50 log ID50.

For 3-aminonaphthylhydrazide, the “ADPRT polymerase activity inhibition” value [1] is given as “known to inhibit ADPRT polymerase activity”.

In the case of `O=Nc1ccc2oc(=O)ccc2c1I` [compound 6, 5-iodo-6-nitroso-1,2-benzopyrone, reference compound], the “inhibition of ADPRT” value [17] is reported as “relatively poor inhibitor”, the permeation [18] is reported as “poor permeant molecule” and the “biological action, times weaker than 6-N-1,2-benzopyrone” value ([12]; relative to 6-nitroso-1,2-benzopyrone) is reported as 10 times.

With `CC[C@]1(O)C[C@H]2CN(CCc3c([nH]c4ccccc34)[C@@](C(=O)OC)(c3cc4c(cc3OC)N(C=O)[C@H]3[C@@](O)(C(=O)OC)[C@H](OC(C)=O)[C@]5(CC)C=CCN6CC[C@]43[C@@H]65)C2)C1` [vincristine, reference compound] the “concentration required for same growth inhibition as 10 μM NOBP” value ([13]; in vitro) was 100 µM.

In the case of `c1ccc2cnccc2c1` [isoquinoline], the “ADPRT polymerase activity inhibition” value [1] is given as “known to inhibit ADPRT polymerase activity”.

In the case of `O=c1c(O)c(-c2ccc(O)c(O)c2)oc2cc(O)cc(O)c12` [quercetin], the “ADPRT polymerase activity inhibition” value [1] is listed as “known to inhibit ADPRT polymerase activity”.

With 5(7)-nitroso-1(2H)-isoquinolinone [NOQ] the “cell killing” value [5] was “complete killing”, the “inhibition of cell growth” value ([6]; 10 μM) was “almost complete inhibition” and the “relative potency” value [6] was “most potent inhibitors”. For the same compound, the “inhibition of thymidine uptake” value ([7]; 10 μM) was “almost complete inhibition”, the “relative potency” value [7] was “most potent inhibitor” and the “inhibition of 3H-thymidine uptake” value [8] was “powerfully inhibited”. The IC50 ([17]; 25° C., 4 minutes, pH 7.5, read-out: I50 (concentration that inhibits ADPRT enzyme activity 50%)) was 13 µM, the “relative inhibition” value [11] was “somewhat more inhibition than NOBP” and the “inhibition” value ([11]; 10 μM) was “almost complete inhibition”. For the same compound, the “inhibitory effects with different growth factors” value [11] was “potent inhibitory effects”, the “Virus Titer (log ID50)” value ([3]; 10 μM) was 1.73 log ID50 and the “anti-tumor and anti-HIV activity” value [12] was “highly active”.
